What was measured:
Assay type in all cases: in vivo
Blattella germanica = test: Test Example 1: spray knockdown test on Blattella germanica; settings: 0.25 h, 10 vermin, oil solution 2.0% w/v, 1.5 ml sprayed, within 15 minutes, read-out: knockdown ratio of test vermin within 15 minutes
Description: (§1) A formulation containing each of the present amide compounds (1), (2), (4), (8), (12), (13), (14), (15), (16), (18), (20), (24), (25), (27) and (28) prepared in accordance with Formulation Example 7 was diluted with an isopropyl alcohol/deodorized kerosine=1/9 mixed liquid so that the active ingredient concentration became 2.0% w/v, to prepare a drug solution for a test.
Ten vermin of Blattella germanica (male female each five vermin) were allowed to release in a container for a test in which a butter was applied on an inner wall (diameter 8.75 cm, height 7.5 cm, bottom face covered with 16 mesh wire net), and the container was arranged on a bottom of a chamber for a test (bottom surface: 46 cm×46 cm, height: 70 cm). From a height of 60 cm from an upper side of the container, 1.5 ml of the drug solution for a test was sprayed using a spray gun (spraying pressure 0.42 kg/cm^2). Thirty seconds after spraying, the container was taken out from the chamber for a test, the number of vermin which had been knocked down was counted for 15 minutes with time, and a knockdown ratio was obtained. The knockdown ratio was calculated by the following expression.
(§2) Knockdown ratio (%)=(number of knocked down vermin/number of test vermin)×100

Culexpipienspallens = test: Test Example 3: spray knockdown test on Culexpipienspallens imagoes; settings: 0.25 h, oil solution 0.1% w/v, 0.5 ml sprayed, within 15 minutes, read-out: knockdown ratio of the test vermin within 15 minutes
Description: as §1, with “(4), (5), (6), (7),” for “(4),”, “(8), (9), (10),” for “(8),”, “(19), (21), (22),” for “(20),”, “(25), (26) and” for “(25),”, “(27)” for “(27) and (28)”, “0.1%” for “2.0%”
Ten imagoes of Culexpipienspallens were allowed to release in a polyethylene cup (bottom surface diameter 10.6 cm), and the cup was covered with a 16 mesh nylon gauze. The polyethylene cup was arranged on a bottom of a chamber for a test (bottom surface: 46 cm×46 cm, height: 70 cm). From a height of 30 cm from an upper surface of the polyethylene cup, 0.5 ml of the drug solution for a test was sprayed using a spray gun (spraying pressure 0.4 kg/cm^2). After spraying, the cup was immediately taken out from the chamber for a test, the number of knocked down vermin was counted for 15 minutes with time, and a knockdown ratio was obtained. The knockdown ratio was calculated by the following expression.
as §2

Spodopteralitura = test: Test Example 7: cabbage spray test on fourth instar larvae of Spodopteralitura; settings: 500 ppm spray, 20 ml/cup, after 4 days
Description: A formulation containing the present amide compound (25) prepared in accordance with Formulation Example 15 was diluted with water so that active ingredient concentration became 500 ppm, to preparer a spray solution for a test. On the other hand, a cabbage was planted in a polyethylene cup, and grown until a third true leaf or a fourth true leaf developed. On the cabbage, the spray solution for a test was sprayed at a rate of 20 ml/cup. After the drug solution which had been spraying-treated on the cabbage was dried, ten fourth instar larvae of Spodopteralitura were parasitized. The number of live vermin of Spodopteralitura on a cabbage leaf was investigated after 4 days, and a controlling value was obtained according to the following expression. Controlling value (%)={1−(Cb×Tai)/(Cai×Tb)}×100 In addition, letters in the equation represent the following meanings. Cb: Number of vermin before treatment of non-treated section Cai: Number of vermin at observation of non-treated section Tb: Number of vermin before treatment of treated-section Tai: Number of vermin at observation of treated-section

Adoxophyesoranafasciata = test: Test Example 8: apple seedling spray test on first instar larvae of Adoxophyesoranafasciata; settings: first instar larvae of Adoxophyesoranafasciata on apple seedlings; 500 ppm spray, 20 ml; seven days after spraying
Description: A formulation of the present amide compound (9) prepared in accordance with Formulation Example 15 was diluted with water so that the active ingredient concentration became 500 ppm, to prepare a spray solution for a test. On the other hand, 20 ml of the spray solution for a test was spraying-treated on each of apple seedlings (28 days after seeding, tree height about 15 cm) planted in a plastic cup. After the drug solution which had spray-treated on the apple was air-dried to an extent that the drug solution was dried, about 30 first instar larvae of Adoxophyesoranafasciata were released. Seven days after spraying, the number of live vermin on an apple seedling was investigated, and a controlling value was obtained according to the following expression. Controlling value (%)={1−(Cb×Tai)/(Cai×Tb)}×100 In addition, letters in the expression indicate the following meanings. Cb: Number of vermin before treatment of non-treated section Cai: Number of vermin at observation of non-treated section Tb: Number of vermin before treatment of treated-section Tai: Number of vermin at observation of treated-section

SMILES | pest or weed control at 2 % strength (Blattella germanica) [%] | pest or weed control at 0.1 % strength (Culexpipienspallens) [%] | controlling value (Spodopteralitura) [%] | controlling value (Adoxophyesoranafasciata) [%]
O=C(NCC1CCOC1)C1=NOC(CCCOCCc2ccccc2)C1 (stereo not drawn) [present amide compound (18), N-(tetrahydrofuran-3-ylmethyl)-5-(3-phenethyloxypropyl)-4,5-dihydroisoxazole-3-carboxamide] | ≥ 80 | ≥ 80 | – | –
O=C(NCC1CCOC1)C1=NOC(CCCCOc2ccccc2)C1 (stereo not drawn) [present amide compound (8), N-(tetrahydrofuran-3-ylmethyl)-5-(4-phenoxybutyl)-4,5-dihydroisoxazole-3-carboxamide] | ≥ 80 | ≥ 80 | – | –
O=C(NCC1CCOC1)C1=NOC(COc2ccc3ccccc3c2)C1 (stereo not drawn) [present amide compound (19), N-(tetrahydrofuran-3-ylmethyl)-5-(2-naphthyloxymethyl)-4,5-dihydroisoxazole-3-carboxamide] | – | ≥ 80 | – | –
O=C(NCC1CCOC1)C1=NOC(CCCCCOCc2ccccc2)C1 (stereo not drawn) [present amide compound (15), N-(tetrahydrofuran-3-ylmethyl)-5-(5-benzyloxypentyl)-4,5-dihydroisoxazole-3-carboxamide] | ≥ 80 | ≥ 80 | – | –
O=C(NCC1CCOC1)C1=NOC(CCCOCc2ccc3ccccc3c2)C1 (stereo not drawn) [present amide compound (21), N-(tetrahydrofuran-3-ylmethyl)-5-(2-naphthylmethyloxypropyl)-4,5-dihydroisoxazole-3-carboxamide] | – | ≥ 80 | – | –
O=C(NCC1CCOC1)C1=NOC(CCCCOCc2ccccc2)C1 (stereo not drawn) [present amide compound (14), N-(tetrahydrofuran-3-ylmethyl)-5-(4-benzyloxybutyl)-4,5-dihydroisoxazole-3-carboxamide] | ≥ 80 | ≥ 80 | – | –
CC1C(C(=O)NCC2CCOC2)=NOC1COc1ccccc1 (stereo not drawn) [present amide compound (22), N-(tetrahydrofuran-3-ylmethyl)-4-methyl-5-phenoxymethyl-4,5-dihydroisoxazole-3-carboxamide] | – | ≥ 80 | – | –
O=C(NCC1CCOC1)C1=NOC(CCCCCCOc2ccccc2)C1 (stereo not drawn) [present amide compound (10), N-(tetrahydrofuran-3-ylmethyl)-5-(6-phenoxyhexyl)-4,5-dihydroisoxazole-3-carboxamide] | – | ≥ 80 | – | –
O=C(NCC1CCOC1)C1=NOC(COCc2ccccc2)CC1 (stereo not drawn) [present amide compound (26), N-(tetrahydrofuran-3-ylmethyl)-6-benzyloxymethyl-5,6-dihydro-4H-[1,2]oxazine-3-carboxamide] | – | ≥ 80 | – | –
O=C(NCC1CCOC1)C1=NOC(CCc2ccccc2)C1 (stereo not drawn) [present amide compound (4), N-(tetrahydrofuran-3-ylmethyl)-5-phenethyl-4,5-dihydroisoxazole-3-carboxamide] | ≥ 80 | ≥ 80 | – | –
O=C(NCC1CCOC1)C1=NOC(CCOCc2ccccc2)C1 (stereo not drawn) [present amide compound (12), N-(tetrahydrofuran-3-ylmethyl)-5-(2-benzyloxyethyl)-4,5-dihydroisoxazole-3-carboxamide] | ≥ 80 | ≥ 80 | – | –
O=C(NCC1CCOC1)C1=NOC(CCCOc2ccccc2)C1 (stereo not drawn) [present amide compound (7), N-(tetrahydrofran-3-ylmethyl)-5-(3-phenoxypropyl)-4,5-dihydroisoxazole-3-carboxamide] | – | ≥ 80 | – | –
O=C(NCC1CCOC1)C1=NOC(CCCOCc2ccccc2)C1 (stereo not drawn) [present amide compound (13), N-(tetrahydrofuran-3-ylmethyl)-5-(3-benzyloxypropyl)-4,5-dihydroisoxazole-3-carboxamide] | ≥ 80 | ≥ 80 | – | –
O=C(NCC1CCOC1)C1=NOC(COc2cccc(Cl)c2)CC1 (stereo not drawn) [present amide compound (25), N-(tetrahydrofuran-3-ylmethyl)-6-(3-chloro-phenoxymethyl)-5,6-dihydro-4H-[1,2]oxazine-3-carboxamide] | ≥ 80 | ≥ 80 | ≥ 80 | –
O=C(NCC1CCOC1)C1=NOC(CCCCCOc2ccccc2)C1 (stereo not drawn) [present amide compound (9), N-(tetrahydrofuran-3-ylmethyl)-5-(5-phenoxypentyl)-4,5-dihydroisoxazole-3-carboxamide] | – | ≥ 80 | – | 100
O=C(NCC1CCOC1)C1=NOC(COc2ccccc2)C1 (stereo not drawn) [present amide compound (5), N-(tetrahydrofran-3-ylmethyl)-5-(phenoxymethyl)-4,5-dihydro isoxazole-3-carboxamide] | – | ≥ 80 | – | –
O=C(NCC1CCOC1)C1=NOC(COc2ccccc2)CC1 (stereo not drawn) [present amide compound (24), N-(tetrahydrofuran-3-ylmethyl)-6-phenoxymethyl-5,6-dihydro-4H-[1,2]oxazine-3-carboxamide] | ≥ 80 | ≥ 80 | – | –
O=C(NCC1CCOC1)C1=NOC(CCOc2ccccc2)C1 (stereo not drawn) [present amide compound (6), N-(tetrahydrofran-3-ylmethyl)-5-(2-phenoxyethyl)-4,5-dihydroisoxazole-3-carboxamide] | – | ≥ 80 | – | –
CCCCC1CC(C(=O)NCC2CCOC2)=NO1 (stereo not drawn) [present amide compound (1), N-(tetrahydrofuran-3-ylmethyl)-5-butyl-4,5-dihydroisoxazole-3-carboxamide] | ≥ 80 | ≥ 80 | – | –
O=C(NCC1CCOC1)C1=NOC(CCCCCCOCc2ccccc2)C1 (stereo not drawn) [present amide compound (16), N-(tetrahydrofuran-3-ylmethyl)-5-(6-benzyloxyhexyl)-4,5-dihydroisoxazole-3-carboxamide] | ≥ 80 | ≥ 80 | – | –
O=C(NCC1CCOC1)C1=NOC(COCc2ccc3ccccc3c2)C1 (stereo not drawn) [present amide compound (20), N-(tetrahydrofuran-3-ylmethyl)-5-(2-naphthylmethyloxymethyl)-4,5-dihydroisoxazole-3-carboxamide] | ≥ 80 | – | – | –
CCCCCC1CC(C(=O)NCC2CCOC2)=NO1 (stereo not drawn) [present amide compound (2), N-(tetrahydrofuran-3-ylmethyl)-5-pentyl-4,5-dihydroisoxazole-3-carboxyamide] | ≥ 80 | ≥ 80 | – | –
O=C(NCC1CCOC1)C1=COC(COc2ccccc2)CC1 (stereo not drawn) [present amide compound (27), N-(tetrahydrofuran-3-ylmethyl)-6-phenoxymethyl-5,6-dihydro-4H-pyrane-3-carboxamide] | ≥ 80 | ≥ 80 | – | –
O=C(NCC1CCOC1)C1=COC(COCc2ccccc2)CC1 (stereo not drawn) | ≥ 80 | – | – | –

Source: patent US20170215424A1 (SUMITOMO CHEMICAL COMPANY, LIMITED, priority 2014, published 2017)
